Source: patent publication US10221163B2 (priority 2015, dated 2019)
pIC50: −log10 of the molar value. Where two headings read alike, the source gives them in different places.

Columns and labels:
[1] = test system: Klebsiella pneumoniae expressing VIM-1 (IHMA599644); format: cell-based; settings: for Klebsiella pneumoniae MITC95: VIM-1 strain IHMA599644, with imipenem 1 μg/ml, 95% inhibition of growth; for Klebsiella pneumoniae expressing VIM-1 (IHMA599644) MITC95: with imipenem 1 μg/ml, 95% inhibition of bacterial growth
Method in brief: (§1)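 Clinical strains grown overnight on blood agar at 35°C, colonies suspended in saline, diluted 1:100 into 1.1×CAMHB. Test compound titrated with imipenem at 1 μg/ml; incubated 22–24 h at 35°C, growth read by absorbance.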

[2] = test system: Serratia marcescens expressing IMP-1 (CL5741); format: cell-based; settings: for Serratia marcescens MITC95: IMP-1 strain CL5741, with imipenem 1 μg/ml, 95% inhibition of growth; for Serratia marcescens expressing IMP-1 (CL5741) MITC95: with imipenem 1 μg/ml, 95% inhibition of bacterial growth
Method in brief: as §1

[3] = test system: Escherichia coli expressing NDM-1 (CLB30005, CLB30016); format: cell-based; settings: with imipenem 1 μg/ml; for Escherichia coli MITC95: NDM-1 strain, 95% inhibition of growth; for Escherichia coli expressing NDM-1 (CLB30016) MITC95: 95% inhibition of bacterial growth
Method in brief: as §1

VIM-1 = VIM-1 (Pseudomonas aeruginosa (strain ATCC 15692 / DSM 22644 / CIP 104116 / JCM 14847 / LMG 12228 / 1C / PRS 101 / PAO1), UniProt A0A0F7KYQ8); assay: biochemical; settings: CCF2-FA substrate, 30 pM enzyme, 2 hours at 25° C.
Method in brief: (§2)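 Fluorescence assay of metallo-β-lactamase activity using CCF2-FA, a cephalosporin-linked 7-hydroxycoumarin–fluorescein substrate. Inhibitor, enzyme and substrate were incubated together for 2 hours at 25° C. IC50 came from a 4-parameter fit of inhibition versus inhibitor concentration.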

IMP-1 = IMP-1 (Serratia marcescens, UniProt P52699); assay: biochemical; format: biochemical; settings: fluorescence assay, CCF2-FA substrate, 2 pM enzyme, 2 hours at 25° C.; read-out: IMP-1 IC50
IMP-1, sequence (P52699 whole entry, looked up, species assumed): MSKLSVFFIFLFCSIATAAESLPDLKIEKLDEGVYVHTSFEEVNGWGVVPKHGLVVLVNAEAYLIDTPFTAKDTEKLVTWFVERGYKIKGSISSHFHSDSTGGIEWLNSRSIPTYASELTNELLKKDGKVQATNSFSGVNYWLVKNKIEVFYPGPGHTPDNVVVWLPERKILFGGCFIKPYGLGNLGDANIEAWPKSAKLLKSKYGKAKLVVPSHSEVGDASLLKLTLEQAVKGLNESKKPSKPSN
Method in brief: as §2

NDM-1 = NDM-1 (Klebsiella pneumoniae, UniProt C7C422); assay: biochemical; format: biochemical; settings: fluorescence assay, CCF2-FA substrate, 1 pM enzyme, 2 hours at 25° C.; read-out: NDM-1 IC50
NDM-1, sequence (C7C422 whole entry, looked up, species assumed): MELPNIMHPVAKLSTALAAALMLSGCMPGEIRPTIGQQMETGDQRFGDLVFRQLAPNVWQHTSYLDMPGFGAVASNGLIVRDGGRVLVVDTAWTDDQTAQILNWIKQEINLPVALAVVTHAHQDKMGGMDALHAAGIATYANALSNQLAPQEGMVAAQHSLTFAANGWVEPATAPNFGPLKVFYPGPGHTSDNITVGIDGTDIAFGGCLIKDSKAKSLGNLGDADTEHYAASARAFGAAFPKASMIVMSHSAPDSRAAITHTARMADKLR
Method in brief: as §2

[4] = test system: Pseudomonas aeruginosa efflux− (MB9799), IMP-1; format: cell-based; settings: C, D serine β-lactamase inhibitor closely related to relebactam; for P. aeruginosa expressing IMP-1, efflux − (MB9799) MITC95: concentration restoring susceptibility to imipenem at 2 μg/mL in the presence of a class A; for Concentration of metallo-β-lactamase inhibitor which restores susceptibility of efflux − (MB9799) strain to imipenem: imipenem at 2 μg/mL, in the presence of a class A
Method in brief: (§3)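 Microbroth MIC tests in PAO1-background strains with fixed imipenem and/or ceftazidime, usually at the CLSI breakpoint, plus fixed class A/C β-lactamase inhibitor against AmpC. MBL inhibitor titrated; concentration restoring susceptibility recorded and compared as fold difference between efflux+ MB9798 and efflux− MB9799.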

[5] = test system: Pseudomonas aeruginosa MB9798 vs MB9799
Method in brief: as §3

[6] = test system: Pseudomonas aeruginosa efflux+ (MB9798), IMP-1; format: cell-based; set-up: Concentration of metallo-β-lactamase inhibitor which restores susceptibility of efflux + (MB9798) strain to imipenem: unit not given here; settings: C, D serine β-lactamase inhibitor closely related to relebactam; for P. aeruginosa expressing IMP-1, efflux + (MB9798) MITC95: concentration restoring susceptibility to imipenem at 2 μg/mL in the presence of a class A; for Concentration of metallo-β-lactamase inhibitor which restores susceptibility of efflux + (MB9798) strain to imipenem: imipenem at 2 μg/mL, in the presence of a class A
Method in brief: as §3

[7] = ratio MITC95 PA_9798/MITC95 PA_9799
[8] = fluorescence assay, read-out: VIM-1 IC50
[9] = fold difference between efflux+ (MB9798) and efflux− (MB9799) strains, imipenem at 2 μg/mL

| Structure (SMILES) | Klebsiella pneumoniae MITC95 [1] | Serratia marcescens MITC95 [2] | Escherichia coli MITC95 [3] | pIC50 (VIM-1; VIM-1 IC50, fluorescence assay) | pIC50 (IMP-1) | pIC50 (NDM-1) | P. aeruginosa expressing IMP-1, efflux − (MB9799) MITC95 [4] | Efflux ratio [5, 7] | P. aeruginosa expressing IMP-1, efflux + (MB9798) MITC95 [6] | Klebsiella pneumoniae expressing VIM-1 (IHMA599644) MITC95 [1] | Serratia marcescens expressing IMP-1 (CL5741) MITC95 [2] | Escherichia coli expressing NDM-1 (CLB30016) MITC95 [3] | pIC50 (VIM-1; [8]) | Concentration of metallo-β-lactamase inhibitor which restores susceptibility of efflux − (MB9799) strain to imipenem [4] | Efflux ratio [5, 9] | Concentration of metallo-β-lactamase inhibitor which restores susceptibility of efflux + (MB9798) strain to imipenem [6] |
| --- | --- | --- | --- | --- | --- | --- | --- | --- | --- | --- | --- | --- | --- | --- | --- | --- |
| NC[C@H](CO)NS(=O)(=O)c1ccc(-c2ccnc(N)c2)c(-c2nn[nH]n2)c1S(N)(=O)=O [Example 362, (R)—N1-(1-amino-3-hydroxypropan-2-yl)-4-(2-aminopyridin-4-yl)-3-(2H-tetrazol-5-yl)benzene-1,2-disulfonamide] | 3.125 µM | 1.563 µM | 1.563 µM | 8.73 | 8.02 | 8.51 | 1.563 µM | 2.00 | 3.125 µM | – | – | – | – | – | – | – |
| NC[C@@H]1CCN(S(=O)(=O)c2ccc(-c3cccc4sc(N)nc34)c(-c3nnn[nH]3)c2S(N)(=O)=O)C1 [Example 70, 3-(2-amino-1,3-benzothiazol-4-yl)-6-{[(3S)-3-(aminomethyl)pyrrolidin-1-yl]sulfonyl}-2-(1H-tetrazol-5-yl)benzenesulfonamide] | – | – | – | 8.55 | 8.64 | 8.71 | 3.125 µM | 1.00 | 3.125 µM | 12.5 µM | 3.125 µM | 6.25 µM | – | – | – | – |
| NCc1nc2cc(-c3ccc(S(=O)(=O)N[C@@H](CN)CO)c(S(N)(=O)=O)c3-c3nn[nH]n3)ccc2[nH]1 [Example 474, (S)-N1-(1-amino-3-hydroxypropan-2-yl)-4-(2-(aminomethyl)-1H-benzo[d]imidazol-5-yl)-3-(2H-tetrazol-5-yl)benzene-1,2-disulfonamide] | 1.563 µM | 1.563 µM | 0.7813 µM | – | 9.28 | 9.98 | – | – | – | – | – | – | 9.85 | 0.7813 | 1.00 | 0.7813 |
| Nc1nc2c(-c3ccc(S(=O)(=O)N[C@H]4CCNC4)c(S(N)(=O)=O)c3-c3nn[nH]n3)cccc2[nH]1 [Example 162, 4-(2-amino-1H-benzo[d]imidazol-4-yl)-N^1-((S)-pyrrolidin-3-yl)-3-(2H-tetrazol-5-yl)benzene-1,2-disulfonamide] | – | – | – | – | 9.13 | 10.22 | 0.4922 µM | 0.87 | 0.4271 µM | 0.9844 µM | 0.5573 µM | 0.3203 µM | 9.81 | – | – | – |
| NS(=O)(=O)c1c(S(=O)(=O)N[C@@H]2CCNC2)ccc(-c2cnc3cc[nH]c3c2)c1-c1nn[nH]n1 [Example 282, (R)-N1-(pyrrolidin-3-yl)-4-(1H-pyrrolo[3,2-b]pyridin-6-yl)-3-(2H-tetrazol-5-yl)benzene-1,2-disulfonamide] | 1.563 µM | 0.7813 µM | 0.7813 µM | 9.88 | 8.95 | 10.35 | 0.7813 µM | 1.00 | 0.7813 µM | – | – | – | – | – | – | – |
| CN1CCOC(CNS(=O)(=O)c2ccc(-c3cccc4sc(N)nc34)c(-c3nnn[nH]3)c2S(N)(=O)=O)C1 (stereo not drawn) [Example 17, 4-(2-amino-1,3-benzothiazol-4-yl)-N1-[(4-methylmorpholin-2-yl)methyl]-3-(1H-tetrazol-5-yl)benzene-1,2-disulfonamide] | – | – | – | – | 9.37 | 10.05 | 6.25 µM | 2.00 | 12.5 µM | 12.5 µM | 6.25 µM | 12.5 µM | 9.39 | – | – | – |
| NCCNCCNS(=O)(=O)c1ccc(-c2ccc(N)nc2)c(-c2nn[nH]n2)c1S(N)(=O)=O [Example 482, N1-(2-(-2-amineoethylamino)ethyl)-4-(6-aminopyridin-3-yl)-3-(2H-tetrazol-5-yl)benzene-1,2-disulfonamide] | 1.563 µM | 0.7813 µM | 0.1953 µM | 9.48 | 8.94 | 9.27 | – | – | – | – | – | – | – | 0.7813 | 2.00 | 1.563 |
| Nc1nc2c(-c3ccc(S(=O)(=O)N[C@H]4CN[C@@H](C(=O)O)C4)c(S(N)(=O)=O)c3-c3nnn[nH]3)cccc2s1 [Example 82, (4R)-4-({[4-(2-amino-1,3-benzothiazol-4-yl)-2-sulfamoyl-3-(1H-tetrazol-5-yl)phenyl]sulfonyl}amino)-D-proline] | – | – | – | 9.71 | 9.69 | 10.31 | 6.25 µM | 0.50 | 3.125 µM | 12.5 µM | 12.5 µM | 6.25 µM | – | – | – | – |
| N#Cc1cccc(-c2ccc(S(=O)(=O)N[C@@H]3CCNC3)c(S(N)(=O)=O)c2-c2nnn[nH]2)c1N [Example 132, (R)-2′-amino-3′-cyano-N4-(pyrrolidin-3-yl)-2-(1H-tetrazol-5-yl)-[1,1′-biphenyl]-3,4-disulfonamide] | – | – | – | – | 8.85 | 9.94 | 0.7813 µM | 4.00 | 3.125 µM | 1.563 µM | 1.563 µM | 0.7813 µM | 9.91 | – | – | – |
